Measurements taken from the NIST ThermoML archive (doi:10.1016/j.jct.2016.04.019).
± gives the expanded uncertainty stated by the source.

Assay: mn = molality of the nth substance listed, in mol/kg
Conditions: 298.15 K, 101.3 kPa, Liquid, Frequency=0.0002 MHz, Alternating current cell with electrodes

C[C@H](CCC(=O)[O-])[C@H]1CC[C@H]2[C@@H]3[C@H](O)C[C@@H]4C[C@H](O)CC[C@]4(C)[C@H]3C[C@H](O)[C@]12C.[Na+] [sodium cholate] + O
Conditions	electrical conductivity [S/m]
m1 = 0.00042	0.0033 ± 0.0003
m1 = 0.00083	0.0062 ± 0.0003
m1 = 0.00124	0.009 ± 0.0006
m1 = 0.00164	0.0118 ± 0.0006
m1 = 0.00205	0.0144 ± 0.0006
m1 = 0.00245	0.0171 ± 0.0006
m1 = 0.00284	0.0197 ± 0.0007
m1 = 0.00324	0.0225 ± 0.0007
m1 = 0.00363	0.025 ± 0.0006
m1 = 0.00401	0.0275 ± 0.0006
m1 = 0.0044	0.0299 ± 0.0006
m1 = 0.00478	0.0322 ± 0.0006
m1 = 0.00516	0.0345 ± 0.0006
m1 = 0.00553	0.0366 ± 0.0007
m1 = 0.0059	0.0388 ± 0.0007
m1 = 0.00627	0.0409 ± 0.0007
m1 = 0.00664	0.043 ± 0.0007
m1 = 0.007	0.0451 ± 0.0007
m1 = 0.00736	0.0473 ± 0.0007
m1 = 0.00772	0.0493 ± 0.0007
m1 = 0.00807	0.0512 ± 0.0007
m1 = 0.00842	0.0532 ± 0.0008
m1 = 0.00877	0.0553 ± 0.0008
m1 = 0.00912	0.0573 ± 0.0008
m1 = 0.00946	0.0591 ± 0.0008
m1 = 0.00981	0.061 ± 0.0008
m1 = 0.01015	0.063 ± 0.0016
m1 = 0.01048	0.0649 ± 0.0015
m1 = 0.01082	0.0668 ± 0.0015
m1 = 0.01115	0.0687 ± 0.0016
m1 = 0.01148	0.0706 ± 0.0016
m1 = 0.0118	0.0724 ± 0.0016
m1 = 0.01213	0.0743 ± 0.0016
m1 = 0.01245	0.0762 ± 0.0016
m1 = 0.01277	0.078 ± 0.0016
m1 = 0.01309	0.0798 ± 0.0016
m1 = 0.0134	0.0816 ± 0.0016
m1 = 0.01371	0.0834 ± 0.0017
m1 = 0.01402	0.0853 ± 0.0017
m1 = 0.01433	0.0871 ± 0.0017
m1 = 0.01464	0.0889 ± 0.0017
m1 = 0.01494	0.0906 ± 0.0017
m1 = 0.01524	0.0924 ± 0.0017
m1 = 0.01554	0.0942 ± 0.0017
m1 = 0.01584	0.0959 ± 0.0017
m1 = 0.01614	0.0976 ± 0.0017
m1 = 0.01643	0.0993 ± 0.0018
m1 = 0.01672	0.101 ± 0.0018
m1 = 0.01701	0.103 ± 0.0018
m1 = 0.0173	0.104 ± 0.0018

CCCCCCCCCCCCOS(=O)(=O)[O-].[Na+] [sodium dodecyl sulfate] + O
Conditions	electrical conductivity [S/m]
m1 = 0.001	0.0071 ± 0.0001
m1 = 0.00201	0.0137 ± 0.0003
m1 = 0.00301	0.0209 ± 0.0004
m1 = 0.00401	0.0275 ± 0.0004
m1 = 0.00501	0.034 ± 0.0004
m1 = 0.00602	0.041 ± 0.0004
